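Grown in 96-well plates, cells were treated for 48 hours with each compound at five concentrations. Insufficient inhibition: endpoint recorded as highest concentration tested. At the GI50, growth is halved.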 Calls of active or inactive are those of the source. Cut-off read from the data, not from the text of the source: active = GI50 up to about 1.1 µM and inactive = higher. Positions of bridges follow the written chain, without caps; N, C: chain ends. Non-standard residues stand in square brackets, D forms with d. Residues, ends and D or L forms follow the SMILES beside them. *: point of attachment. Cbz = O=C(OCc1ccccc1)*; Aib = CC(C)(N)C(=O)O; OBn = c1ccc(CO*)cc1; βAla = NCCC(=O)O

Some test systems named below: 786-0; ACHN; BT-549; DU-145; HCT-15; HOP-62; IGROV-1; KM12; LOX IMVI; MOLT-4; NCI-H23; NCI-H522; PC-3; SF-295; SK-MEL-5; SN12C; T47D; TK-10; CCRF-CEM; SK-MEL-2.
Common to all, as to test: inhibition of tumour cell growth, NCI panel, 48 h

For `CC1(C)NC(=O)C(NC(=O)C(CC(=O)OCc2ccccc2)NC(=O)OCc2ccccc2)CCCCNC(=O)CCNC1=O` (stereo not drawn) (Cbz-D(OBn)K[Aib][βAla]; lactam 2-C; configuration not given here), the GI50 in the assay with 786-0 was > 100 µM (inactive); with ACHN, > 100 µM (inactive); in the assay on BT-549 it was > 100 µM (inactive); in the assay on DU-145, > 100 µM (inactive); in the assay on HCT-15 it was > 100 µM; with HOP-62, > 100 µM (inactive). In addition, the GI50 in the assay on IGROV-1, with KM12, in the assay on LOX IMVI, in the assay with MOLT-4, in the assay with NCI-H23 and in the assay with NCI-H522 was > 100 µM (inactive) each time. Besides, the GI50 in the assay with PC-3, in the assay on SF-295, with SK-MEL-5, with SN12C, with T47D and in the assay with TK-10 was > 100 µM (inactive) throughout.

For `COc1cc(/N=N/N(C)C)c(C(C)c2c3cc(OC)c(OC)cc3cc[n+]2C)cc1OC` (stereo not drawn), the GI50 in the assay with 786-0 is 51.8 µM (inactive); in the assay with ACHN, > 100 µM (inactive); with BT-549 it was 46.9 µM (inactive); in the assay on CCRF-CEM, 37.3 µM (inactive); with DU-145, 62.7 µM (inactive); in the assay on HCT-15, > 100 µM. Further, the GI50 in the assay on HOP-62 is 49.7 µM (inactive); with IGROV-1 it was 36.9 µM (inactive); with KM12, 14.3 µM (inactive); in the assay on LOX IMVI it was 25.2 µM (inactive); with MOLT-4 it was 56.1 µM (inactive); with NCI-H23, 41.6 µM (inactive). Further, the GI50 is 38.5 µM (inactive) with PC-3; > 100 µM (inactive) in the assay with SF-295; 24.9 µM (inactive) in the assay with SK-MEL-2; 21.4 µM (inactive) in the assay on SK-MEL-5; 40.5 µM (inactive) in the assay on SN12C; 23.4 µM (inactive) in the assay with T47D. Also, the GI50 in the assay on TK-10 is 31.6 µM (inactive).

Consider `CC1(C)Cc2ccccc2C(C)(Cl)C(=O)N1` (stereo not drawn), for which the GI50 was > 10 µM (inactive) with 786-0; > 10 µM (inactive) with ACHN; > 10 µM (inactive) with BT-549; > 10 µM (inactive) in the assay with CCRF-CEM; > 10 µM (inactive) in the assay with DU-145; > 10 µM with HCT-15. For the same compound, the GI50 in the assay on HOP-62, in the assay with IGROV-1, with KM12, in the assay with MOLT-4, with NCI-H23 and with PC-3 was > 10 µM (inactive) each time. Moreover, the GI50 in the assay with SF-295, in the assay with SN12C, in the assay with T47D and with TK-10 was > 10 µM (inactive) each time.

For `Nc1nnnn1CCO`, the GI50 was > 100 µM (inactive) in the assay with 786-0; > 100 µM (inactive) in the assay with ACHN; > 100 µM (inactive) in the assay with BT-549; > 100 µM (inactive) in the assay on DU-145; > 100 µM with HCT-15; > 100 µM (inactive) in the assay with HOP-62. The GI50 with IGROV-1, in the assay with KM12, in the assay on LOX IMVI, in the assay with NCI-H23, with NCI-H522 and with PC-3 was > 100 µM (inactive) throughout. Moreover, the GI50 in the assay with SF-295, in the assay on SK-MEL-2, in the assay on SK-MEL-5, with SN12C, with T47D and with TK-10 was > 100 µM (inactive) throughout.

Consider `COc1ccc(C(Nc2ccccn2)c2cc(C(C)(C)C)cc(C(C)(C)C)c2O)cc1` (stereo not drawn), for which the GI50 in the assay with 786-0 is 21.4 µM (inactive); in the assay with ACHN, 30.8 µM (inactive); with BT-549, 17 µM (inactive); in the assay with DU-145, 7.76 µM (inactive); in the assay on HCT-15, 22.3 µM; with HOP-62, 16.9 µM (inactive). Moreover, the GI50 in the assay on IGROV-1 is 24 µM (inactive); in the assay on KM12, 14.9 µM (inactive); with LOX IMVI, 13.9 µM (inactive); in the assay with NCI-H23, 17.1 µM (inactive); in the assay with NCI-H522, 4.05 µM (inactive); with PC-3, 21.8 µM (inactive). Also, the GI50 is 12.4 µM (inactive) in the assay on SF-295; 18.1 µM (inactive) with SK-MEL-2; 16.3 µM (inactive) in the assay on SK-MEL-5; 18.1 µM (inactive) with SN12C; 6.67 µM (inactive) in the assay on T47D; 49.7 µM (inactive) with TK-10.

As to `COc1ccc(OC)c(/C=C/c2ccnc3ccccc23)c1`, the GI50 was 0.482 µM (active) in the assay on 786-0; 0.533 µM (active) in the assay with ACHN; 0.568 µM (active) in the assay with BT-549; 0.337 µM (active) with CCRF-CEM; 0.525 µM (active) in the assay on DU-145; 0.372 µM with HCT-15. The GI50 in the assay with HOP-62 was 0.45 µM (active); in the assay on IGROV-1, 0.822 µM (active); with KM12, 0.312 µM (active); in the assay on LOX IMVI, 0.365 µM (active); with MOLT-4, 0.519 µM (active); with NCI-H23, 0.346 µM (active). The GI50 is 0.281 µM (active) in the assay on NCI-H522; 0.514 µM (active) in the assay on PC-3; 0.332 µM (active) with SF-295; 0.272 µM (active) in the assay on SK-MEL-5; 0.619 µM (active) in the assay with SN12C; 1.63 µM (inactive) in the assay with T47D. Besides, the GI50 with TK-10 is 1.61 µM (inactive).

`OC1CSc2nc3ccccc3n2C1` (stereo not drawn): the GI50 in the assay with 786-0 was > 100 µM (inactive); in the assay on ACHN it was > 100 µM (inactive); with BT-549 it was > 100 µM (inactive); in the assay on CCRF-CEM, > 100 µM (inactive); with DU-145, > 100 µM (inactive); with HCT-15, > 100 µM. In addition, the GI50 with IGROV-1, in the assay on KM12, with LOX IMVI, in the assay on MOLT-4, in the assay with NCI-H23 and in the assay with PC-3 was > 100 µM (inactive) each time. The GI50 in the assay on SF-295, in the assay with SK-MEL-5, in the assay on SN12C, with T47D and in the assay on TK-10 was > 100 µM (inactive) each time.

With `NNC(=O)COc1nc(-c2cccs2)nc2ccc(I)cc12`, the GI50 is 25.5 µM (inactive) in the assay with 786-0; 22.5 µM (inactive) in the assay on ACHN; 15.3 µM (inactive) with BT-549; 21.7 µM (inactive) in the assay on DU-145; 20.7 µM in the assay on HCT-15; 27.3 µM (inactive) in the assay with HOP-62. Further, the GI50 in the assay on IGROV-1 was 18.4 µM (inactive); in the assay on KM12, 17.1 µM (inactive); in the assay on LOX IMVI it was 17.6 µM (inactive); in the assay on MOLT-4, 25.7 µM (inactive); with NCI-H23 it was 15.3 µM (inactive); in the assay with NCI-H522, 18.7 µM (inactive). Also, the GI50 in the assay with PC-3 is 25.4 µM (inactive); in the assay on SF-295, 28.8 µM (inactive); in the assay on SK-MEL-2, 24.5 µM (inactive); in the assay on SK-MEL-5, 20.1 µM (inactive); in the assay on SN12C, 23.1 µM (inactive); with T47D it was 1.47 µM (inactive). The GI50 in the assay on TK-10 is 18.2 µM (inactive).

Consider `Nc1cccc(OCC2CCCN3CCCCC23)c1` (stereo not drawn), for which the GI50 in the assay with 786-0 is 15.6 µM (inactive); in the assay with ACHN it was 18 µM (inactive); with BT-549 it was 17.1 µM (inactive); in the assay on CCRF-CEM, 15.2 µM (inactive); in the assay on DU-145 it was 17.5 µM (inactive); in the assay with HCT-15 it was 17.5 µM. Also, the GI50 in the assay on HOP-62 is 16.2 µM (inactive); in the assay on KM12, 17.6 µM (inactive); with LOX IMVI it was 15.8 µM (inactive); in the assay on MOLT-4 it was 20.9 µM (inactive); with NCI-H23, 17.7 µM (inactive); in the assay with PC-3, 16.9 µM (inactive). For the same compound, the GI50 is 17.8 µM (inactive) in the assay with SF-295; 20.1 µM (inactive) in the assay on SK-MEL-2; 18.9 µM (inactive) in the assay with SK-MEL-5; 16.7 µM (inactive) in the assay on SN12C; 17.8 µM (inactive) with T47D; 17.4 µM (inactive) in the assay with TK-10.

With `C1CCNCC1.S=C(S)N1CCCCC1`, the GI50 in the assay with 786-0 is 97.3 µM (inactive); in the assay on ACHN, 87.7 µM (inactive); in the assay on BT-549, 406 µM (inactive); in the assay on DU-145, 140 µM (inactive); with HCT-15, 88.9 µM; in the assay on HOP-62, 129 µM (inactive). Also, the GI50 in the assay on IGROV-1 is 5.96 µM (inactive); with KM12, 2.26 µM (inactive); with LOX IMVI, 60.5 µM (inactive); with NCI-H23, 62.2 µM (inactive); with NCI-H522, 0.276 µM (active); in the assay on PC-3 it was 37.7 µM (inactive). Moreover, the GI50 with SF-295 was 99.8 µM (inactive); in the assay on SK-MEL-2, 85.3 µM (inactive); in the assay with SK-MEL-5 it was 1.74 µM (inactive); in the assay on SN12C, 64.6 µM (inactive); in the assay on T47D it was 91 µM (inactive); in the assay on TK-10, 135 µM (inactive).

For the compound `CC(C)CCCC(C)[C@H]1CC[C@H]2N/C(=N/Cc3ccccc3)CCC[C@]12C` (stereo partly drawn), the GI50 is 2 µM (inactive) with 786-0; 2.72 µM (inactive) in the assay with BT-549; 2.13 µM (inactive) with CCRF-CEM; 2.52 µM (inactive) in the assay on DU-145; 1.67 µM with HCT-15; 2.46 µM (inactive) with HOP-62. Further, the GI50 is 1.74 µM (inactive) in the assay with IGROV-1; 1.88 µM (inactive) in the assay on KM12; 1.92 µM (inactive) in the assay with LOX IMVI; 1.88 µM (inactive) in the assay with MOLT-4; 2.23 µM (inactive) with NCI-H23; 1.81 µM (inactive) in the assay on PC-3. Moreover, the GI50 in the assay on SF-295 is 2.03 µM (inactive); with SK-MEL-2, 1.97 µM (inactive); in the assay with SK-MEL-5 it was 1.58 µM (inactive); in the assay with SN12C it was 1.84 µM (inactive); with T47D it was 2.83 µM (inactive); in the assay on TK-10 it was 2.08 µM (inactive).

For the origin of these results see ChEMBL document CHEMBL1201862, “PubChem BioAssay data set” (2004).
